According to patent US20170079966A1, “INHIBITION OF TUMOR CELL INTERACTIONS WITH THE MICROENVIRONMENT RESULTING IN A REDUCTION IN TUMOR GROWTH AND DISEASE PROGRESSION” (Deciphera Pharmaceuticals, LLC, priority 2014, published 2017):

Molecular target: TIE2 (Homo sapiens, UniProt Q02763)
Assay: HUVEC Phospho-TIE2 Western Blot Assay
Format: cell-based
Set-up: host or cells: HUVEC
Conditions: 4 hours compound; 800 ng/mL ANG1 complex 15 minutes; read-out: IC50, ANG1-stimulated phospho-TIE2 in HUVECs
Experimental: HUVEC cells (2.5×10^5 cells/well) were added to a 24-well tissue-culture treated plate in 1 mL of EGM-2 culture medium (Lonza, Walkersville, Md.). Cells were then incubated overnight at 37 degrees Celsius, 5% CO2, and 95% humidity. Media was then aspirated and 1 mL EBM-2 basal medium (Lonza, Walkersville, Md.) supplemented with 2% FBS (Invitrogen, Carlsbad, Calif.) was added. […] The plates were then incubated for 4 hours at 37 degrees Celsius, 5% CO2, and 95% humidity. During the incubation, histidine-tagged angiopoietin 1 (ANG1) growth factor (R&D Systems, Minneapolis, Minn.) was added to an anti-polyhistidine antibody (R&D Systems, Minneapolis, Minn.) for 30 minutes at room temperature to generate multimers of ANG1. […] The media was aspirated and the cells were washed with PBS. The cells were lysed using MPER lysis buffer (Pierce, Rockford, Ill.) containing Halt Phosphatase and Protease Inhibitors (Pierce, Rockford, Ill.) and Phosphatase inhibitor cocktail 2 (Sigma, St. Louis, Mo.) at 4° C. for 10 minutes with shaking. […] Fluorescence was detected using a Storm 840 phosphorimager (GE Healthcare, Piscataway, N.J.) in fluorescence mode. The 160 kDa phospho-TIE2 band was quantified using ImageQuant software (GE Healthcare, Piscataway, N.J.). Data was analyzed using Prism software (GraphPad Software, San Diego, Calif.) to calculate the IC50 value.

Chain of TIE2 (Q02763 23-1124): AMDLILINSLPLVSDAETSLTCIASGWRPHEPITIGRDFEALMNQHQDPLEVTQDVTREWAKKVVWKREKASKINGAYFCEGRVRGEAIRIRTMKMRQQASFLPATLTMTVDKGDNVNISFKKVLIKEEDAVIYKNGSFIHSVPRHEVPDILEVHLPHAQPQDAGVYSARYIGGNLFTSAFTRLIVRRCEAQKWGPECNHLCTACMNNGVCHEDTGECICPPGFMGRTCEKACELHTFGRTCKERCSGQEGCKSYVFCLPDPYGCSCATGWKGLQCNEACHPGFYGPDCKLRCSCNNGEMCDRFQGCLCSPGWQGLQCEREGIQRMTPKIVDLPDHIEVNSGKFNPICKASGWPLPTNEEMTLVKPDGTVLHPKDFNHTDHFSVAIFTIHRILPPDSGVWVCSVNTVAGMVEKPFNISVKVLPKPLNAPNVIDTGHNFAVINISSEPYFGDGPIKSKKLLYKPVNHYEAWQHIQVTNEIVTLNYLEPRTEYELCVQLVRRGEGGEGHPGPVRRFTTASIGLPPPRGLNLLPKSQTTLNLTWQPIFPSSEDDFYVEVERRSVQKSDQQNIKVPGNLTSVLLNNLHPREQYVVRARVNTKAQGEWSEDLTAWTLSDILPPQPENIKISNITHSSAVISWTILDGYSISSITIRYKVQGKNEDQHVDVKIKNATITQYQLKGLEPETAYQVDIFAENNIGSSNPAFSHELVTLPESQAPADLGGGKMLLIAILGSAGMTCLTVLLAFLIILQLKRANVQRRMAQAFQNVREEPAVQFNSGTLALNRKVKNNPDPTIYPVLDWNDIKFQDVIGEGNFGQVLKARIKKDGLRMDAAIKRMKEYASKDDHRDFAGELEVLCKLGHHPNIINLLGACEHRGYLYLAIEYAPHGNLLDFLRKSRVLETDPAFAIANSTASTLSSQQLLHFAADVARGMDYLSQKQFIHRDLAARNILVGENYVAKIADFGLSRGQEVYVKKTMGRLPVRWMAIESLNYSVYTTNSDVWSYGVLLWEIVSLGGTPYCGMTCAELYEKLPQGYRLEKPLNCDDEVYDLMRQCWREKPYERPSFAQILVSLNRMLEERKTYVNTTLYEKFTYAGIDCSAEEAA

O=C(Nc1cc(Oc2cc(F)c(NC(=O)C3(C(=O)Nc4ccc(F)cc4)CC3)cc2F)ccn1)C1CC1 [Compound 1, N-(4-(2-(cyclopropanecarboxamido)pyridin-4-yloxy)-2,5-difluorophenyl)-N′-(4-fluorophenyl)cyclopropane-1,1-dicarboxamide]
IC50: 1 nM
